Binding and K b data for two molecules are collected here from paper PMC5048337 (2016).

In assay [1] the test system is h-TERT (FAM/TAMRA) (DNA, G4) GGGGGCTGGGCCGGGGACCCGGGAGGGGTCGGGACGGGGCGGGG
The assay can be described thus: FRET melting. The conditions noted are these: 60 mM potassium cacodylate; pH 7.4; 1 μM compound, 0.2 μM oligonucleotide.

In assay [2] the test system is bcl2 (FAM/TAMRA) (DNA, G4) AGGGGCGGGCGCGGGAGGAAGGGGGCGGGAGCGGGGCTG
The assay can be described thus: FRET melting. The following applies: 60 mM potassium cacodylate; pH 7.4; 1 μM compound, 0.2 μM oligonucleotide.

In assay [3] the test system is c-Kit1 (FAM/TAMRA) (DNA, G4) AGGGAGGGCGCTGGGAGGAGGG
The assay can be described thus: FRET melting. The conditions noted are these: 60 mM potassium cacodylate; pH 7.4; 1 μM compound, 0.2 μM oligonucleotide.

Assay [4] relates to bcl2 (DNA, G4) AGGGGCGGGCGCGGGAGGAAGGGGGCGGGAGCGGGGCTG
The assay can be described thus: UV-Vis titration, intrinsic method (Rodger and Nordén). The following applies: K+ 100 mM (KCl); 50 mM Tris-HCl, pH 7.5, 25 °C.

For assay [5], the system named is c-Kit1 (DNA, G4) AGGGAGGGCGCTGGGAGGAGGG
The description is as above. The conditions noted are these: K+ 100 mM (KCl); 50 mM Tris-HCl, pH 7.5, 25 °C.

The test system is the same in assay [6]. The assay can be described thus: UV-Vis titration, reciprocal plot (Wolfe). The following applies: K+ 100 mM (KCl); 50 mM Tris-HCl, pH 7.5, 25 °C.
Assay [7] relates to bcl2 (DNA, G4) AGGGGCGGGCGCGGGAGGAAGGGGGCGGGAGCGGGGCTG
The assay can be described thus: UV-Vis titration, reciprocal plot (Wolfe). The conditions noted are these: K+ 100 mM (KCl); 50 mM Tris-HCl, pH 7.5, 25 °C.

The subject of assay [8] is h-TERT (DNA, G4) GGGGGCTGGGCCGGGGACCCGGGAGGGGTCGGGACGGGGCGGGG
The assay can be described thus: UV-Vis titration, reciprocal plot (Wolfe). The conditions noted are these: K+ 100 mM (KCl); 50 mM Tris-HCl, pH 7.5, 25 °C.

Assay [9] shares this test system. The assay can be described thus: UV-Vis titration, intrinsic method (Rodger and Nordén). The following applies: K+ 100 mM (KCl); 50 mM Tris-HCl, pH 7.5, 25 °C.

SMILES strings stand for the structures.

For the molecule `CC[N+](CC)(CC)Cc1ccc([O-])c(C=NCCN=Cc2cc(C[N+](CC)(CC)CC)ccc2[O-])c1.[Cu+2]`, the binding entry in [1], in [2] and in assay [3] was “yes” throughout.
As for `CC[N+](CC)(CC)Cc1ccc([O-])c(C=NCCN=Cc2cc(C[N+](CC)(CC)CC)ccc2[O-])c1.[Ni+2]`, the K b result in [4] is reported as “(3.4 ± 0.3) × 10^4 M^–1”; in assay [5], “(4.9 ± 0.3) × 10^4 M^–1”; in assay [6], “(2.4 ± 0.5) × 10^5 M^–1”; in [7], “(2.0 ± 0.4) × 10^5 M^–1”; in [8], “(1.1 ± 0.1) × 10^5 M^–1”; in [9], “(3.7 ± 0.4) × 10^4 M^–1”. Moreover, the binding result in [1], in [2] and in [3] was “yes” in each case.
